Results: patent US20020013306A1, “TERPYRIDINE-PLATINUM(II) COMPLEXES” (priority 1996, published 2002)
Several values for one entry are separate records, joined by “and”; a condition that tells them apart may be missing. Identical values can stand only once. Like-named read-outs stand apart in the source and are kept apart here.

How the values were obtained:
[1] = system: SKOV3 human ovarian carcinoma cell line; test: 96 h growth inhibition, sulforhodamine B assay, SKOV3; assay type: cell-based; details: 96 h exposure, v = variable (mean)
[2] = system: A2780 human ovarian carcinoma cell line; test: 96 h growth inhibition, sulforhodamine B assay, A2780; assay type: cell-based; details: 96 h exposure, v = variable (mean)
[3] = system: CH1cis^R human ovarian carcinoma cell line (cisplatin resistant); test: 96 h growth inhibition, sulforhodamine B assay, CH1cisR; assay type: cell-based; details: for IC50: 96 h exposure, growth inhibition, v = variable (mean); for RF resistance factor: IC50 resistant line/IC50 parent line: CH1cis^R / CH1
[4] = system: CH1dox^R human ovarian carcinoma cell line (doxorubicin resistant); test: 96 h growth inhibition, sulforhodamine B assay, CH1doxR; assay type: cell-based; details: for IC50: 96 h exposure, growth inhibition; for RF resistance factor: IC50 resistant line/IC50 parent line: CH1dox^R / CH1
[5] = system: CH1 human ovarian carcinoma cell line; test: 96 h growth inhibition, sulforhodamine B assay, CH1; assay type: cell-based; details: 96 h exposure, v = variable (mean)
[6] = system: A2780cis^R human ovarian carcinoma cell line (cisplatin resistant); test: 96 h growth inhibition, sulforhodamine B assay, A2780cisR; assay type: cell-based; details: for IC50: 96 h exposure, growth inhibition, v = variable (mean); for RF resistance factor: IC50 resistant line/IC50 parent line: A2780cis^R / A2780
[7] = system: T. brucei (S427) bloodstream trypomastigotes; test: Trypanosoma brucei bloodstream trypomastigote culture; assay type: cell-based
[8] = system: T. cruzi (MHOM/BR/00/Y); test: Trypanosoma cruzi in mouse peritoneal macrophages; assay type: cell-based
Method: Trypanosoma cruzi: […] Drug activity was determined from the % of infected macrophages in treated cultures. Nifurtimox was used as the positive control.

[9] = system: P falciparum (chloroquin resistant strain K1); test: In vitro antimalarial activity, chloroquine resistant K1; details: for % Inhibition, MQ, K1 P. falciparum: duplicates
Method: Plasmodium falciparum: P falciparum (chloroquin resistant strain K1) was cultured at 37° C. in a 5% suspension of infected so erythrocytes (group A Rh^+) in complete medium as described by E L Elueze, S L Croft and D C Warhurst, J Antimicrobial Chemotherapy, 1996, 37, 511-518. The in vitro antimalarial activity of compounds were likewise determined according to their protocol. Mefloquin was used as the positive control.”

Compound | IC50 [1] [µM] | IC50 [2] [µM] | IC50 [3] [µM] | RF resistance factor: IC50 resistant line/IC50 parent line [3] | IC50 [4] [µM] | RF resistance factor: IC50 resistant line/IC50 parent line [4] | IC50 [5] [µM] | IC50 [6] [µM] | RF resistance factor: IC50 resistant line/IC50 parent line [6] | % Inhibition, Trypanosoma brucei ([7]; 0.1 μM) [%] | % Inhibition, Trypanosoma brucei ([7]; 0.3 μM) [%] | % Inhibition, Trypanosoma brucei ([7]; 1 μM) [%] | % Inhibition, Trypanosoma brucei ([7]; 3 μM) [%] | % Inhibition, Trypanosoma brucei ([7]; 10 μM) [%] | % Inhibition, Trypanosoma brucei ([7]; 30 μM) [%] | % Inhibition, Trypanosoma cruzi ([8]; 1 μM) [%] | also measured
4,4′-Vinylidenedipyridine bis[2,2′:6′,2″-terpyridine platinum II] tetrafluoroborate [Compound A14] | 1.3 | 1.6 | 0.63 | 0.46 | 5.1 | 3.8 | 1.35 | 2.4 | 1.5 |  |  |  |  |  |  |  | 
4,4′-Vinylidenedipyridine bis[4′-(4-bromophenyl)-2,2′:6′,2″-terpyridine platinum II]tetrafluoroborate [Compound Q14] | 4.7 |  | 2.8 | 1.4 | 1.9 | 0.9 | 2 | 2.3 |  |  |  |  |  |  |  |  | 
4,4′-Vinylidenedipyridine bis[4′-chloro-2,2′:6′,2″-terpyridine platinum II]tetrafluoroborate [Compound I14] | 15 |  | 17 | 1.1 | 7.8 | 0.5 | 15 | 19 |  |  |  |  |  |  |  |  | 
4-Picoline 4′-amino-2,2′:6′,2″-terpyridine platinum II tetrafluoroborate [X] | 25 | 25 | 16.5 | 1.1 | 17 | 1.1 | 15.1 | 21 | 0.8 | 0 | 0 | 100 | 100 | 100 | 100 |  | 
Brc1cc[n+]([Pt-2]23[n+]4ccccc4-c4cccc([n+]42)-c2cccc[n+]23)cc1.F[B-](F)(F)F.F[B-](F)(F)F [Compound A1] | 9.2 | 5.8 | 2.1 | 1.0 | 0.85 | 0.41 | 2.1 | 6.7 | 1.16 | 100 | 100 | 100 | 100 | 100 | 100 |  | % Inhibition, Trypanosoma brucei ([7]; 0.03 μM): 100%
CC(=O)c1cc[n+]([Pt-2]23[n+]4ccccc4-c4cccc([n+]42)-c2cccc[n+]23)cc1.F[B-](F)(F)F.F[B-](F)(F)F [Compound A2] | 11.1 | 5.9 | 2.3 | 1.05 | 1.18 | 0.54 | 2.2 | 7.5 | 1.25 | 62.7 | 86.4 | 100 | 100 | 100 | 100 | 3.8 | % Inhibition, Trypanosoma brucei ([7]; 0.03 μM): 50.0%
CN(C)c1cc[n+]([Pt-2]23[n+]4ccccc4-c4cccc([n+]42)-c2cccc[n+]23)cc1.F[B-](F)(F)F.F[B-](F)(F)F [Compound A3] | 13 | 16 | 7.5 | 1.2 | 3.95 | 0.6 | 6.1 | 21.5 | 1.3 | 44.6 | 100 | 100 | 100 | 100 | 100 | 30.3 | % Inhibition, Trypanosoma cruzi ([8]; 3 μM): 85.8%; % Inhibition, Trypanosoma cruzi ([8]; 10 μM): 100%; % Inhibition, Trypanosoma cruzi ([8]; 30 μM): 99.8%
F[B-](F)(F)F.F[B-](F)(F)F.Fc1cccc[n+]1[Pt-2]12[n+]3ccccc3-c3cccc([n+]31)-c1cccc[n+]12 [Compound A4] | > 100 | 21.5 | 14 | 0.9 | 5.4 | 0.3 | 15.5 | > 100 |  |  |  | 100 | 100 | 100 | 100 | 3.0 | % Inhibition, Trypanosoma cruzi ([8]; 3 μM): 6.0%; % Inhibition, Trypanosoma cruzi ([8]; 10 μM): 93%
F[B-](F)(F)F.F[B-](F)(F)F.Fc1ccc[n+]([Pt-2]23[n+]4ccccc4-c4cccc([n+]42)-c2cccc[n+]23)c1 [Compound A5] | > 100 | 19.5 | 17 | 1 | 6.1 | 0.3 | 17 | > 100 |  |  |  | 100 | 100 | 100 | 100 | 2.0 | % Inhibition, Trypanosoma cruzi ([8]; 3 μM): 6.5%; % Inhibition, Trypanosoma cruzi ([8]; 10 μM): 43.8%
F[B-](F)(F)F.F[B-](F)(F)F.OCc1cc[n+]([Pt-2]23[n+]4ccccc4-c4cccc([n+]42)-c2cccc[n+]23)cc1 [Compound A9] | 17 | 40 | 12.5 | 0.9 | 5 | 0.3 | 14 | 92 | 2.3 | 32.5 | 100 | 100 | 100 | 100 | 100 |  | 
Brc1ccc(-c2cc(-c3ccccn3)nc(-c3ccccn3)c2)cc1.F[B-](F)(F)F.F[B-](F)(F)F.N.[Pt+2] [Compound Q12, Ammonio 4′-(4-bromophenyl)-2,2′:6′,2″-terpyridine platinum II tetrafluoroborate] |  |  |  |  |  |  |  |  |  | 100 | 100 | 100 | 100 | 100 | 100 |  | 
OC(c1cc(C(F)(F)F)nc2c(C(F)(F)F)cccc12)C1CCCCN1 (centres unmarked) [MQ, Mefloquin, reference compound] |  |  |  |  |  |  |  |  |  |  |  |  |  |  |  |  | % Inhibition, MQ, K1 P. falciparum ([9]; Concn. MQ 0.015625 μM): 0%; % Inhibition, MQ, K1 P. falciparum ([9]; Concn. MQ 0.0626 μM): 77.5% and 56.9%; % Inhibition, MQ, K1 P. falciparum ([9]; Concn. MQ 0.5 μM): 96.4% and 95.3%; % Inhibition, MQ, K1 P. falciparum ([9]; Concn. MQ 1 μM): 94.9% and 91.6%; % Inhibition, MQ, K1 P. falciparum ([9]; Concn. MQ 2 μM): 96.3% and 94.7%; % Inhibition, MQ, K1 P. falciparum ([9]; Concn. MQ 025 μM): 98.0% and 97.2%; % Inhibition, MQ, K1 P. falciparum ([9]; Concn. MQ 003125 μM): 0.5% and 0%; % Inhibition, MQ, K1 P. falciparum ([9]; Concn. MQ): 93.6% and 94.8%; IC50 ([9]; read-out: IC50 (avg), K1 P. falciparum, average of duplicates): 0.06 µM; IC50 ([9]; read-out: IC50, K1 P. falciparum, each duplicate (1),(2)): 0.05 µM and 0.06 µM
Cc1ccncc1.F[B-](F)(F)F.F[B-](F)(F)F.OCCNc1cc(-c2ccccn2)nc(-c2ccccn2)c1.[Pt+2] [U, (4-Picoline)(4′-(N-2-Hydroxyethyl)amino-2,2′:6′,2″-Terpyridine) Platinum (II) Tetrafluoroborate] |  |  |  |  |  |  |  |  |  | 0 | 0 | 0 | 68.4 | 100 | 100 | 0 | % Inhibition, Trypanosoma cruzi ([8]; 3 μM): 0%; % Inhibition, Trypanosoma cruzi ([8]; 10 μM): 0%; % Inhibition, Trypanosoma cruzi ([8]; 30 μM): 18.0%
N.N.[Cl][Pt][Cl] [cisplatin, cis[Pt(NH3)2Cl2], reference compound] | 2.25 | 0.53 | 1.2 |  |  |  | 0.4 | 8.8 |  |  |  |  |  |  |  |  | 
CC1CS(=O)(=O)CCN1/N=C/c1ccc([N+](=O)[O-])o1 (centres unmarked) [nifurtimox, Nifurtimox, reference compound] |  |  |  |  |  |  |  |  |  |  |  |  |  |  |  |  | EC50 ([8]; Trypanosoma cruzi, Peritoneal macrophage, read-out: ED50 against Trypanosoma cruzi): 3 µM
Ammonio 4′-chloro-2,2′:6′,2″-terpyridine platinum II tetrafluoroborate [Compound I12] |  |  |  |  |  |  |  |  |  | 0 | 0 | 100 | 100 | 100 | 100 |  | 
